The series can be described thus: Permeability of the compound in PBS buffer at pH 7.4 incubated for 16 hrs by LC-MS/MS based PAMPA assay. In kind it is ADME. The note with it: read-out: permeability. A general note: In PAMPA a lipid-coated filter parts donor from acceptor wells.
Consider `Cc1ncsc1-c1ccc(CNC(=O)[C@@H]2C[C@@H](O)CN2C(=O)[C@@H](NC(=O)Cc2ccc(OCCOc3cnc4c(C5CCN(C(=O)c6ccc(OC(F)(F)F)cc6)CC5)ncnc4c3)cn2)C(C)(C)C)cc1`, for which the Papp at 16 h is 7.28 ×10⁻⁶ cm/s.
To `Cc1ncsc1-c1ccc(CNC(=O)[C@@H]2C[C@@H](O)CN2C(=O)[C@@H](NC(=O)Cc2ccc(OCCOc3cnc4c(C5CCN(C(=O)c6ccc(OC(F)(F)F)cc6)CC5)ncnc4c3)cc2)C(C)(C)C)cc1` belongs 7.56 ×10⁻⁶ cm/s; to `Cc1ncsc1-c1ccc(CNC(=O)[C@@H]2C[C@@H](O)CN2C(=O)[C@@H](NC(=O)CN(C)CCCCCCOc2cnc3c(C4CCN(C(=O)c5ccc(OC(F)(F)F)cc5)CC4)ncnc3c2)C(C)(C)C)cc1`, 6.67 ×10⁻⁶ cm/s; to `Cc1ncsc1-c1ccc(CNC(=O)[C@@H]2C[C@@H](O)CN2C(=O)[C@@H](NC(=O)CCOCCNC(=O)COc2cnc3c(C4CCN(C(=O)c5ccc(OC(F)(F)F)cc5)CC4)ncnc3c2)C(C)(C)C)cc1`, 6.21 ×10⁻⁶ cm/s.
With `Cc1ncsc1-c1ccc(CNC(=O)[C@@H]2C[C@@H](O)CN2C(=O)[C@@H](NC(=O)CCOCCOCCOc2cnc3c(C4CCN(C(=O)c5ccc(OC(F)(F)F)cc5)CC4)ncnc3c2)C(C)(C)C)cc1`, the Papp at 16 h was determined as 5.42 ×10⁻⁶ cm/s.
Under `Cc1ncsc1-c1ccc(CNC(=O)[C@@H]2C[C@@H](O)CN2C(=O)[C@@H](NC(=O)COCc2cn(CCOc3cnc4c(C5CCN(C(=O)c6ccc(OC(F)(F)F)cc6)CC5)ncnc4c3)nn2)C(C)(C)C)cc1` stands 7.94 ×10⁻⁶ cm/s.
To `Cc1ncsc1-c1ccc(CNC(=O)[C@@H]2C[C@@H](O)CN2C(=O)[C@@H](NC(=O)COCCOCCNC(=O)COc2cnc3c(C4CCN(C(=O)c5ccc(OC(F)(F)F)cc5)CC4)ncnc3c2)C(C)(C)C)cc1` belongs 6.3 ×10⁻⁶ cm/s; to `Cc1ncsc1-c1ccc(CNC(=O)[C@@H]2C[C@@H](O)CN2C(=O)[C@@H](NC(=O)CCCCCCCCOc2cnc3c(C4CCN(C(=O)c5ccc(OC(F)(F)F)cc5)CC4)ncnc3c2)C(C)(C)C)cc1`, 8.29 ×10⁻⁶ cm/s.
Under `Cc1ncsc1-c1ccc(CNC(=O)[C@@H]2C[C@@H](O)CN2C(=O)[C@@H](NC(=O)CN2CCC(CCCOc3cnc4c(C5CCN(C(=O)c6ccc(OC(F)(F)F)cc6)CC5)ncnc4c3)CC2)C(C)(C)C)cc1` stands 6.9 ×10⁻⁶ cm/s.

These data come from ChEMBL document CHEMBL6087447, “Impact of Linker Composition on VHL PROTAC Cell Permeability” (J Med Chem, 2025).
